Measurements from BindingDB's records for doi:10.1021/acs.jmedchem.8b01497 ("Sapienza" Universit&#163, 2018).

Target: T1, Heparanase (Homo sapiens, UniProt Q9Y251)
T1 sequence (Q9Y251 whole entry): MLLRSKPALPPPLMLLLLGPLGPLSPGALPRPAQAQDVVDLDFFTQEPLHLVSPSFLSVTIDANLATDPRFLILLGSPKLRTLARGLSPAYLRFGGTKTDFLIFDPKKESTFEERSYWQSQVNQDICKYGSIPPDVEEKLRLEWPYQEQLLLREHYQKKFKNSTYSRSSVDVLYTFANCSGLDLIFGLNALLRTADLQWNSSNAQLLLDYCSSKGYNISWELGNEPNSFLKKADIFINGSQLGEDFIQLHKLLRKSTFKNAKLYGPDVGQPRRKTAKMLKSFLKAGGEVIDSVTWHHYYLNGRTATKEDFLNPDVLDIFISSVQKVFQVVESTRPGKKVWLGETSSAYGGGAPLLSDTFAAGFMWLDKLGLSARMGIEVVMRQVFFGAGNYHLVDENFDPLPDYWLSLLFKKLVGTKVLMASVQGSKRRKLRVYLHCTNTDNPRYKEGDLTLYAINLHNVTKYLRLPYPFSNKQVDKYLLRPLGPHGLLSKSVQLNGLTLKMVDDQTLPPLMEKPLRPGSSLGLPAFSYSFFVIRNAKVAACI
Experiment: Inhibition of recombinant HPSE (unknown origin) using fondaparinux as substrate incubated for 3 hrs in absence of light by WST1 assay

An IC50 of 5 nM was found for `CC(=O)N[C@H]1[C@@H](O[C@@H](CO)C(O[C@H](O)CO)C(=O)O)O[C@H](CO)[C@@H](O[C@@H]2OC(C(=O)O)[C@@H](O[C@H]3O[C@H](CO)[C@@H](O)[C@H](O)[C@H]3NC(C)=O)[C@H](O)[C@H]2OS(=O)(=O)O)[C@@H]1O` (stereo partly specified) in this work.
